Columns and labels:
[1] = test system: LTB4 synthesis by rat glycogen-elicited polymorphonuclear leukocytes (lipoxygenase); assay: Inhibition of LTB4 synthesis by rat glycogen-elicited polymorphonuclear leukocytes (PMN); assay type: cell-based, rat (female Wistar); details: Rattus norvegicus, Leukocyte, A 23187 and exogenous AA
Source text: This is especially true with respect to 5,12-diHETE, which is also denoted as LTB4 [see Ford-Hitchinson, J. Roy. Soc. Med., 74, 831 (1981)]. Compounds which inhibit the PLA2 -mediated release of arachidonic acid thereby effectively prevent the oxidation of arachidonic acid to the various leukotriene products via the lipoxygenase cascade. Accordingly, the specificity of action of PLA2 inhibitors can be determined by the activity of test compounds in this assay, which measures the ability of compounds to inhibit the synthesis of LTB4 by rat glycogen-elicited polymorphonuclear leukocytes (PMN) in the presence of exogenous substrate.
The assay is carried out as follows:
Rat polymorphonuclear leukocytes (PMNs) are obtained from female Wistar rats (150-200 g) which receive an injection of 6% glycogen (10 ml i.p.). Rats are sacrificed 18-24 hours post injection by CO2 asphyxiation and the elicited cells are harvested by peritoneal lavage using physiological saline (0.9% NaCl). The exudate is centrifuged at 400×g for 10 minutes. The supernatant fluid is discarded and the cell pellet is resuspended to a concentration of 2.0×10^7 cells/ml in HBSS containing Ca^++ and Mg^++ and 10 μM L-cysteine.
To 1 ml aliquots of cell suspension, test drugs or vehicle are added, then preincubated at 37° C. for 10 minutes. A 23187 (1 μM), [^3 H]-AA (3.0 μCi/ml) and unlabeled AA (1 μM) are then added and the samples are further incubated for 10 minutes. The reaction is terminated by centrifugation and pelleting cells. Supernatants are then analyzed by HPLC analysis on a 15 cm×4.6 mm ID supelcosil LC-18 (Supelco)(3M) column, using a two solvent system at a flow rate of 1.4 ml total flow as follows:
Gradient: (system is equillibrated with Solvent A)
Percent solvent changes are accomplished in a linear fashion.
Injections: 150 μl of each supernatant is injected directly onto column and ^3 H arachidonic acid metabolites are monitored using an on-line radioactivity detector (Ramona, IN/US, Fairfield, NJ).
Standards: 10^4 -2.0×10^4 dpm of eicosanoids of interest are injected in 90 μl EtOH cocktail.
Co-chromatography with standard [^3 H] leukotriene B4 (LTB4) in medium of stimulated PMN exposed to drug is compared to that found in medium of stimulated cells exposed to no drug, generating percent inhibition.
Results are expressed as percent inhibition at a given compound dose or as an IC50 value.

[2] = test system: Rat Peritonitis Fluid PLA2; assay: In vitro isolated phospholipase A2 assay, rat peritonitis fluid PLA2; assay type: biochemical
Bee Venom PLA2 = Bee Venom PLA2 (Apis mellifera, UniProt P00630); assay: biochemical; details: read-out: % Inhibition at a concentration of 10 μM, Bee Venom
LTC4 = assay: In vivo murine zymosan peritonitis assay, LTC4 (lipoxygenase pathway); design: species or system mouse (male CD-1)
Description: The compounds of the invention are evaluated for their ability to inhibit the lipoxygenase and/or cyclooxygenase pathways of arachidonic acid metabolism in the in vivo murine zymosan peritonitis assay.
This assay is carried out as follows:
Male CD-1 mice (8 weeks old) are placed in plastic boxes in groups of six. Animals are injected with 1 ml i.p. of either 1% zymosan in pyrogen free 0.9% saline or saline (unstimulated control). Compounds are dosed orally 1 hour prior to zymosan injection. Twenty minutes after zymosan injection, the mice are asphyxiated by CO2 inhalation and the peritoneal cavity is lavaged with 2 ml ice cold Hanks Balanced Salt Solution (HBSS) without CaCl2, MgSO4 ·7H2 O and MgCL2 ·6H2 O. Peritoneal lavage fluid from each mouse is removed by syringe and placed in 5 ml plastic test tubes put on ice and volume is noted. Preparation of samples for evaluation by ELISA is as follows: Samples are centrifuged at 800×g for 15 minutes; 1 ml of the supernatant is added to 8 ml ice cold methanol and kept at -70° C. overnight to precipitate protein; and samples are then centrifuged at 800×g for 15 minutes, followed by a drying procedure in a Savant speed vac concentrator. The samples are reconstituted with 1 ml ice cold ELISA buffer and stored at -70° C. until assayed. The assay for eicosanoids (LTC4 and 6-keto-PGF1α) is performed according to conventional ELISA procedures.
Compounds to be tested orally are suspended in 0.5% Tween 80. Compounds to be tested intraperitoneally are suspended in 0.5% methylcellulose in 0.9% saline.
The total metabolite level in lavage fluid/mouse is calculated and the significance is determined by a one-way analysis of variance with LSD comparisons to control (p≤0.05). Drug effects are expressed as a percent change from control values.

Chain of Bee Venom PLA2 (P00630 34-167 limits assumed): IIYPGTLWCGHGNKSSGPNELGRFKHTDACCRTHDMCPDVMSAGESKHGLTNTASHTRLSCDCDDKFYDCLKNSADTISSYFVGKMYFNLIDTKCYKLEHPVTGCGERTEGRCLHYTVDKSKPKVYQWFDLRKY

SMILES: O=C(O)Cc1cc(OCc2ccc3ccccc3n2)ccc1Nc1c(Cl)cccc1Cl [Example 2, 2-[(2,6-Dichlorophenyl)amino]-5-(2-quinolylmethoxy)benzene acetic acid]
- IC50 [1]: 0.01 µM
- % Inhibition at a concentration of 10 μM, Rat Peritonitis Fluid [2]: 69.7%
- inhibition at 10 µM (Bee Venom PLA2): 38.7%
- % Inhibition LTC4 (LTC4; 50 mg/kg p.o.): 47%
- % Inhibition LTC4 (LTC4; 100 mg/kg p.o.): 78%
